Reference: ChEMBL document CHEMBL1201862, “PubChem BioAssay data set” (2004)
The source made the active and inactive calls. Unless noted, no cut-off for these calls is given here.

Tests used:
[1] = target: C-C chemokine receptor type 6 (Homo sapiens, UniProt P51684); assay: analog antagonism of CCR6 beta-arrestin signaling – cell-based, luminescent beta-arrestin readout, SAR follow-up (AID 540334); type: functional
[2] = target: DNA dC->dU-editing enzyme APOBEC-3G (Homo sapiens, UniProt Q9HC16); assay: Dose Response confirmation of small molecule APOBEC3G DNA Deaminase Inhibitors via a fluorescence-based single-stranded DNA deaminase assay. [Related pubchem assays (depositor defined):AID493012, AID493028]; type: functional
Sequence of DNA dC->dU-editing enzyme APOBEC-3G (Q9HC16 whole entry): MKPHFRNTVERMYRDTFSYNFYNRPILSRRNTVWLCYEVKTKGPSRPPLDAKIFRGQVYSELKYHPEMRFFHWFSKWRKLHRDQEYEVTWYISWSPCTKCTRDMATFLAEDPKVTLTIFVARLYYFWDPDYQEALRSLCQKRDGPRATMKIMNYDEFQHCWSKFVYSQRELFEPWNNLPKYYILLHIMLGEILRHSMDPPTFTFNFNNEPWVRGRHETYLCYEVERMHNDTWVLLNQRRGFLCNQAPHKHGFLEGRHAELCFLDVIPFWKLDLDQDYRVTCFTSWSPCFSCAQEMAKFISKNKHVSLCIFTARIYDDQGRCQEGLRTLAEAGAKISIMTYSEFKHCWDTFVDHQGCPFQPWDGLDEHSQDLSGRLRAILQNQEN

[3] = target: DNA dC->dU-editing enzyme APOBEC-3A (Homo sapiens, UniProt P31941); assay: A3A deaminase inhibition for selectivity – biochemical, dose response (AID 504722); type: functional
Sequence of DNA dC->dU-editing enzyme APOBEC-3A (P31941 whole entry, the tested form may be a part): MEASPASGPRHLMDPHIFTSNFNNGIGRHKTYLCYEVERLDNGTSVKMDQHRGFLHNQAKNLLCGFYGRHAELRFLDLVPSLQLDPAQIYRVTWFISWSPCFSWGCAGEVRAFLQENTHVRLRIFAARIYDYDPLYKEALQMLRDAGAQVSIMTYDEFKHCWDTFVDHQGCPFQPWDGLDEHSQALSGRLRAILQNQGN

Apelin receptor = Apelin receptor (Homo sapiens, UniProt P35414); assay: apelin receptor antagonists, arrestin read-out – cell-based, luminescent, enzyme-fragment complementation, selectivity assay for CCR6 antagonist project, SAR follow-up (AID 588359); type: functional
Sequence of Apelin receptor (P35414 whole entry, the tested form may be a part): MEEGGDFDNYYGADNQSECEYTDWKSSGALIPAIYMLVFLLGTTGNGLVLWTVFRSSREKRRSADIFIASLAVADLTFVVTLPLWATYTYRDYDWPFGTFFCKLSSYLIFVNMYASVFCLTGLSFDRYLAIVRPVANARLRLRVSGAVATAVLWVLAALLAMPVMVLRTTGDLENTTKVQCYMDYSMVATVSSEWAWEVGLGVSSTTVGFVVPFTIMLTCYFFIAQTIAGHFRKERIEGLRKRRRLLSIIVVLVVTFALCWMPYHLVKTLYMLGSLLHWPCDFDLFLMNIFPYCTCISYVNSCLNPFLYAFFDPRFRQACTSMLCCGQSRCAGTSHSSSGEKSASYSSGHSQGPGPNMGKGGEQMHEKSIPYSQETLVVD

[4] = target: C-X-C chemokine receptor type 5 (Homo sapiens, UniProt P32302); assay: inhibition of CXCL13-driven CXCR5 beta-arrestin recruitment – cell-based, luminescence, CHO-K1 PathHunter, selectivity assay for CCR6 antagonist project, SAR follow-up (AID 540340); type: functional
Sequence of C-X-C chemokine receptor type 5 (P32302 whole entry): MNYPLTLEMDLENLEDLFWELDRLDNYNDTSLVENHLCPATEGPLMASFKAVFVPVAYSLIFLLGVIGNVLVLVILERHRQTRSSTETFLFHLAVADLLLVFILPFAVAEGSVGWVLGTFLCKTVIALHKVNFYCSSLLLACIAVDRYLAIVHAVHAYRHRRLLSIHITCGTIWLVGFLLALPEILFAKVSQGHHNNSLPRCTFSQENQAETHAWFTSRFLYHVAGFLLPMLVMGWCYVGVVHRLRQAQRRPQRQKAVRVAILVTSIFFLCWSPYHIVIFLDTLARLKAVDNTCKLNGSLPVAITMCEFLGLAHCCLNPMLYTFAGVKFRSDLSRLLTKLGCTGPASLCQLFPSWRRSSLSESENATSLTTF

H4 [5] = assay: inhibitors of control reporter signal in H4 cells – cell-based, plate reader, dry powder samples, counter-screen for prion reporter project, dose response (AID 540255); type: functional; conditions: Homo sapiens
HEK293 = assay: cells; conditions: Homo sapiens;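 note: cells exposed to compound for 14 hours overnight before viability readout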
H4 [6] = assay: Amyloid Precursor 5' UTR neuroblastoma cell reporter line Measured in Cell-Based System Using Plate Reader - 2078-04_Inhibitor_Dose_DryPowder_Activity. [Related pubchem assays (depositor defined):AID488894]; type: functional; conditions: Homo sapiens
H4 [7] = assay: Inhibitors of Prion Protein 5' UTR mRNA Measured in Cell-Based System Using Plate Reader - 2078-01_Inhibitor_Dose_DryPowder_Activity. [Related pubchem assays (depositor defined):AID488894]; type: functional; conditions: Homo sapiens
Tumor necrosis factor = Tumor necrosis factor (Homo sapiens, UniProt P01375); assay: analog potency on TNFa NF-kB signaling – cell-based, revised, SAR follow-up (AID 2337); type: functional
Sequence of Tumor necrosis factor (P01375 whole entry): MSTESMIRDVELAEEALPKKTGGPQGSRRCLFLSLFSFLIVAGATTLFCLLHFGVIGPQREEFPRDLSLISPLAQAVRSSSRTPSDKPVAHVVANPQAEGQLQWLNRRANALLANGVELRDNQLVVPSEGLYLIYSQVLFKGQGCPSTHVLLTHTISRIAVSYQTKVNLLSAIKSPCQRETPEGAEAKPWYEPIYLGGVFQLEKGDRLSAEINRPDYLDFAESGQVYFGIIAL

[8] = target: Luciferin 4-monooxygenase (Photinus pyralis, UniProt P08659); assay: inhibition of purified Photinus pyralis luciferase – biochemical, dry powder samples, plate reader, dose response (AID 588451)
Sequence of Luciferin 4-monooxygenase (P08659 whole entry, the tested form may be a part): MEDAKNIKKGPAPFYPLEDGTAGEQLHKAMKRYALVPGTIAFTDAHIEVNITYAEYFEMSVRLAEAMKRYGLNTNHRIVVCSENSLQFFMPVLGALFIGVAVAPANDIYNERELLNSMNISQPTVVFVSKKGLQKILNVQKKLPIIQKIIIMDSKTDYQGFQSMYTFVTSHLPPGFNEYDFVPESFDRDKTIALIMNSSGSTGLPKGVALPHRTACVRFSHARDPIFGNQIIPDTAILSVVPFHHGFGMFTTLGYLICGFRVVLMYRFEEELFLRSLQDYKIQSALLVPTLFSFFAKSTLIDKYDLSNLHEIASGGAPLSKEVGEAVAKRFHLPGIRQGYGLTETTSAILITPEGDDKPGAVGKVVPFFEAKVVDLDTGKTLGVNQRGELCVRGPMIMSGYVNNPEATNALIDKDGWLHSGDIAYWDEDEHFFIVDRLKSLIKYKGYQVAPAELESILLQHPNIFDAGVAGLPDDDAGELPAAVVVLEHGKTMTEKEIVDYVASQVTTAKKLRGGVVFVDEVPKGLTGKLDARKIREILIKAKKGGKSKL

[9] = target: T1, Nucleotide-binding oligomerization domain-containing protein 1 (Homo sapiens, UniProt Q9Y239); assay: blockers of NOD1 pathway activity – revised, SAR follow-up (AID 2333); type: functional
T1 sequence (Q9Y239 whole entry): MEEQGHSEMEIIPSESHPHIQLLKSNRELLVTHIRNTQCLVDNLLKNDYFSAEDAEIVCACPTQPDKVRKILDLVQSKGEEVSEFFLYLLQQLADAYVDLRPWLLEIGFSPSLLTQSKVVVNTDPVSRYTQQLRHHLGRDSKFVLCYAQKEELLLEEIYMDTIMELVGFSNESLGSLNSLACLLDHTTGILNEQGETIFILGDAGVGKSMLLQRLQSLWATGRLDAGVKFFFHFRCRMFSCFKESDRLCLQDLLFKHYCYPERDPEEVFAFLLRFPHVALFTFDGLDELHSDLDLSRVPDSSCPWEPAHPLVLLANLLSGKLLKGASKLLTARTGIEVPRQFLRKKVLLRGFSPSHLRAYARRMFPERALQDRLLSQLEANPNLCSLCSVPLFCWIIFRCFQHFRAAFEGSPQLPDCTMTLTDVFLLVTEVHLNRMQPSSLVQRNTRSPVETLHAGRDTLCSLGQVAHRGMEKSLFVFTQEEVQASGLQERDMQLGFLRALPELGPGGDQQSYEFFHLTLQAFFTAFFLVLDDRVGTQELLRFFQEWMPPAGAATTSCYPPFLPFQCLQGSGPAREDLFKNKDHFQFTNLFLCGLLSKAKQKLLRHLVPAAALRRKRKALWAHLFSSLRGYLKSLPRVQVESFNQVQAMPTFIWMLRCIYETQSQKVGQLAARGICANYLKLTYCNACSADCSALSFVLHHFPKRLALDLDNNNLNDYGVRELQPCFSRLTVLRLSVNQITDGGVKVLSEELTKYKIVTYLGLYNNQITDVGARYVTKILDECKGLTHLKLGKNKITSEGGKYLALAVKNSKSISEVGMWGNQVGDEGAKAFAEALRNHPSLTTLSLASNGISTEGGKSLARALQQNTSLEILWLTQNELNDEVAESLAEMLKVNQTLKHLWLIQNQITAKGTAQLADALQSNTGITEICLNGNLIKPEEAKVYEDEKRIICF

Sequence of C-C chemokine receptor type 6 (P51684 whole entry): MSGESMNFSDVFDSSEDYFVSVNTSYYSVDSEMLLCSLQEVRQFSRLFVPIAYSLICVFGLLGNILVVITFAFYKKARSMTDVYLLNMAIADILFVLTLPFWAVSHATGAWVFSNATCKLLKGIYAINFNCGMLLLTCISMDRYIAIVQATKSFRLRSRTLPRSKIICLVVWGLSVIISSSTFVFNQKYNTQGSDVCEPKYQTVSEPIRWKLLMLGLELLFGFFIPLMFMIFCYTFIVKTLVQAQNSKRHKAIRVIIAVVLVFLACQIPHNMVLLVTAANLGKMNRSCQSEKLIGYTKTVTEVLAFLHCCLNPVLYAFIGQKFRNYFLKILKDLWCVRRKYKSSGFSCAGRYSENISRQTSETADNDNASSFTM

SMILES: O=C1C2C3C=CC(CO)(O3)C2C(=O)N1c1ccccc1-c1ccccc1 (configuration not stated)
- IC50 [1]: > 66.6 µM (inactive)
- IC50 [2]: 11.4 µM (active)
- IC50 [3]: > 100 µM (inactive)
- IC50 (Apelin receptor): > 66.6 µM (inactive)
- IC50 [4]: 52.7 µM (inactive)

SMILES: CC(C)(C)c1ccc(-c2nc3ccccc3s2)cc1
- AC50 (H4 [5]): 0.205 µM (active)
- IC50 (HEK293): > 20 µM (inactive)
- AC50 (H4 [6]): 0.00226 µM (active)
- AC50 (H4 [7]): 0.011 µM (active)
- IC50 (Tumor necrosis factor): 0.246 µM (active)
- AC50 [8]: 25.8 µM (active)
- IC50 [9]: 0.0318 µM (active)
